Molecules are shown by their SMILES. ± gives the standard deviation of the averaged measurements.

Assay in all cases: drug sensitivity score (DSS) (DSS score); higher = more sensitive (stronger growth inhibition); extreme values may be limits of the assay
In assay [1] the test system is Ba/F3 P210-BCR-ABL1 RUNX1wt/wt control (mouse). In short, it runs like this: (§1)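 Each value is a drug sensitivity score derived from CellTiter-Glo luminescence scaled between vehicle and positive-control wells. Mouse Ba/F3 clones, CRISPR/Cas9-edited at a target exon or edited controls, were seeded at 10,000 cells per well in RPMI with 10% FBS and treated for 72 h at 37 °C and 5% CO2. Compounds from a 528-compound library were tested at five concentrations over a 10,000-fold range, and scores were averaged over two replicates.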

Assay [2] relates to Ba/F3 P210-BCR-ABL1 RUNX1-/mut (mouse). In short, it runs like this:
as §1

Assay [3] relates to Ba/F3 P210-BCR-ABL1 RUNX1-/- (mouse). In short, it runs like this:
as §1

For the molecule `CC(C)Oc1ccc(C(=O)N[C@H](CNC(=O)CN(C)C)Cc2ccc(-c3cn4cccc([C@H](C)O)c4n3)cc2)cc1Cl`, the drug sensitivity score in assay [1] came out at 2 ± 0.14; in assay [2] it was 7.5 ± 2.4; in assay [3] it was 10.2 ± 0.57.
Consider `CCOc1ccn(-c2ccc(F)cc2)c(=O)c1C(=O)Nc1ccc(Oc2ccnc(N)c2Cl)c(F)c1`, for which the drug sensitivity score was determined as 0 in assay [1], 0 in assay [2] and 0.1 ± 0.14 in assay [3].
With `CCc1cncnc1N1CCN(Cc2nc3ccc(C(F)(F)F)cc3[nH]2)CC1`, the drug sensitivity score came out at 0 in assay [1], 0.8 ± 1.1 in assay [2] and 2 ± 1.1 in assay [3].
Taken in the same sequence, the figures for `CCn1c(-c2nonc2N)nc2c(C#CC(C)(C)O)ncc(OC[C@H]3CCCNC3)c21` were 0, 1.45 ± 2 and 0.75 ± 1.1.
Taken in the same sequence, the figures for `CCn1c(-c2nonc2N)nc2cnc(Oc3cccc(NC(=O)c4ccc(OCCN5CCOCC5)cc4)c3)cc21` were 1.45 ± 0.071, 4.25 ± 2.3 and 5.55 ± 1.1.
Taken in the same sequence, the figures for `CCn1c(C(=O)N(C2CC2)C2CC2)cc2c3c(ncn3C)c(Nc3cc(C)n(C)n3)nc21` were 0, 0 and 0.35 ± 0.49.
Turning to `CCn1cc(-c2ccnc3[nH]c(-c4cccc(CN(C)C)c4)cc23)c(-c2ccc(NC(=O)N(C)C)cc2)n1`, the drug sensitivity score is 0.3 ± 0.28 in assay [1], 9.15 ± 1.5 in assay [2] and 14.6 ± 2.2 in assay [3].
Taken in the same sequence, the figures for `CN(c1ncccc1CNc1nc(Nc2ccc3c(c2)CC(=O)N3)ncc1C(F)(F)F)S(C)(=O)=O` were 4.8 ± 0.57, 7.25 ± 1.9 and 5.7 ± 0.28.
On the same counts, the results for `CNC(=O)c1ccc(C)c(-n2c(C)cc(OCc3ccc(F)cc3F)c(Br)c2=O)c1` are 0, 0.05 ± 0.071 and 0.
As to `CNC(=O)c1ccccc1Nc1nc(Nc2ccc3c(c2OC)CCC[C@H](N2CCN(CCO)CC2)C3)ncc1Cl`, the results for the drug sensitivity score in assay [1], in assay [2] and in assay [3] were 8 ± 0.14, 8.65 ± 0.21 and 8.75 ± 0.21, respectively.
With `CNc1nc(-c2ccc3c(N)n[nH]c3c2)cc(N2C[C@@H](C(=O)NC3CCCCC3)CC[C@H]2C)n1`, the values for the drug sensitivity score in assay [1], in assay [2] and in assay [3] were 0, 4 ± 2.3 and 7.15 ± 0.35, respectively.
On the same counts, the results for `COc1cc2ncnc(Oc3cccc(NC(=O)Nc4cc(C(C)(C)C(F)(F)F)on4)c3)c2cc1OC` are 21.6 ± 0.49, 13.2 ± 19 and 15.8 ± 22.
On the same counts, the results for `COc1ccc(Cn2ccc3ccc(C(=O)NO)cc32)cc1` are 0, 4.25 ± 0.78 and 3.15 ± 1.6.
On the same counts, the results for `C[C@@H](Oc1cc(-n2cnc3ccc(CN4CCN(C)CC4)cc32)sc1C(N)=O)c1ccccc1C(F)(F)F` are 15.8, 20.6 ± 2.3 and 22.2 ± 1.5.
Consider `C[C@@H](Oc1ccc2[nH]nc(/C=C/c3cnn(CCO)c3)c2c1)c1c(Cl)cncc1Cl`, for which the drug sensitivity score in assay [1] is 6.65 ± 0.21; in assay [2] it was 8.95 ± 1.5; in assay [3], 14.5 ± 3.5.
On the same counts, the results for `C[C@@H]1CN(CC(=O)Nc2ccc3c(c2)Cc2cccc(-c4cc(=O)cc(N5CCOCC5)o4)c2S3)C[C@H](C)O1` are 3.05 ± 0.49, 5.3 ± 1.3 and 6.15 ± 1.8.
As for `C[C@H]1Oc2cc(cnc2N)-c2c(nn(C)c2C#N)CN(C)C(=O)c2ccc(F)cc21`, the figures for the drug sensitivity score in assay [1], in assay [2] and in assay [3] were 0, 2.2 ± 3.1 and 0.5 ± 0.71, respectively.
Consider `Cc1c(Cn2c(C)nc3c(C(=O)O)cc(N4CCOCC4)cc32)cccc1C(F)(F)F`, for which the drug sensitivity score in assay [1], in assay [2] and in assay [3] was 0 throughout.
Take `Cc1ccc(C(=O)N(CCCN)[C@@H](c2oc3cc(Cl)ccc3c(=O)c2Cc2ccccc2)C(C)C)cc1`: the drug sensitivity score in assay [1] was 1.9 ± 0.14; in assay [2], 6.65 ± 4.7; in assay [3] it was 9.5 ± 6.1.
As to `Cc1cccc(CC(=O)N2CCc3c2ccc(-c2cn(C)c4ncnc(N)c24)c3F)n1`, the drug sensitivity score in assay [1] was 2.45 ± 0.35; in assay [2] it was 0.55 ± 0.21; in assay [3], 1.85 ± 0.49.
On the same counts, the results for `Cc1nc(Nc2n[nH]c3c2CN(C(=O)N[C@H](CN(C)C)c2ccccc2)C3(C)C)c2sccc2n1` are 24.85 ± 0.071, 37.2 ± 0.64 and 40.15 ± 0.35.
Taken in the same sequence, the figures for `Cc1ncc(Cl)cc1NCc1ccc(C(=O)N[C@@H](CC2CCCC2)C(=O)NC2CC2)s1` were 0, 4 ± 4.5 and 4.65 ± 0.21.
On the same counts, the results for `Cc1nn(C)c(COc2ccc(N3CCN(S(=O)(=O)N(C)C)CC3)cc2)c1-c1cccc2c(CCCOc3cccc4ccccc34)c(C(=O)O)n(CCN3CCOCC3)c12` are 6.65 ± 0.64, 6.6 ± 0.14 and 6.9 ± 0.85.
Consider `N#Cc1ccc(COC[C@H]2O[C@@H](n3c(NCc4ccc(Cl)c(Cl)c4)nc4c(N)ncnc43)[C@H](O)[C@@H]2O)cc1`, for which the drug sensitivity score in assay [1] is 3.55 ± 0.071; in assay [2], 11.2 ± 4; in assay [3], 9.1 ± 1.8.
Taken in the same sequence, the figures for `NCC(=O)Nc1ccc(-n2nc(C(F)(F)F)cc2-c2ccc3c(ccc4ccccc43)c2)cc1` were 0, 0 and 0.6 ± 0.85.
Taken in the same sequence, the figures for `NC[C@@](O)(c1ccc(Cl)cc1)c1ccc(-c2cn[nH]c2)cc1` were 1.55 ± 0.78, 0.05 ± 0.071 and 1.25 ± 1.8.
Turning to `Nc1nccc(-c2c(-c3ccc(F)cc3)ncn2C2CCCCC2)n1`, the values for the drug sensitivity score in assay [1], in assay [2] and in assay [3] were 0, 0 and 0.05 ± 0.071, respectively.
For the molecule `Nc1ncnc2c1c(COc1cccc(Cl)c1)nn2C1CCOCC1`, the results for the drug sensitivity score in assay [1], in assay [2] and in assay [3] were 0.05 ± 0.071, 1.05 ± 1.1 and 1.6 ± 1.1, respectively.
As to `O=C(NOC[C@H](O)CO)c1ccc(F)c(F)c1Nc1ccc(I)cc1F`, the drug sensitivity score in assay [1] came out at 0.2 ± 0.28; in assay [2], 3.85 ± 1.1; in assay [3], 7.95 ± 0.92.
On the same counts, the results for `O=C(Nc1ccc2[nH]nc(-c3ccncc3)c2c1)[C@@H]1CCN(CC(=O)N2CCN(c3ccc(-c4ncccn4)cc3)CC2)C1` are 5.1 ± 1.3, 10.7 ± 1.4 and 17.8 ± 1.6.
On the same counts, the results for `O=C(O)c1ccc(-c2c[nH]c3ncc(-c4ccccc4)cc23)cc1C1CCCC1` are 0.85 ± 0.35, 2.5 ± 0.28 and 2.8 ± 0.57.
Regarding `O=c1[nH]c(C2CCCN2)nc2c1oc1ccc(Cl)cc12` (stereo unspecified), the drug sensitivity score in assay [1] is 0; in assay [2], 2.3 ± 2.3; in assay [3] it was 7.1 ± 1.1.

Source of the values: the supplement of paper PMC8024199.
